PubChem BioAssay (NCI)
Several values for one entry are separate records, joined by “and”; a condition that tells them apart may be missing. Equal entries are not always repeated.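 In this assay, cells in 96-well plates receive the compound at five concentrations for 48 hours. Endpoints are linearly interpolated between the surrounding concentrations. GI50 = concentration required for 50% inhibition of growth. TGI denotes the concentration required for complete inhibition of growth.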

How the values were obtained:
Assay in all cases: NCI-60 cell line screen, 48 h
786-0 renal = test system: 786-0 renal
NCI-H23 lung = test system: NCI-H23 lung
SW-620 colon = test system: SW-620 colon
A498 renal = test system: A498 renal
HL-60(TB) leukemia = test system: HL-60(TB) leukemia
SK-MEL-28 melanoma = test system: SK-MEL-28 melanoma
HCT-15 colon = test system: HCT-15 colon
ACHN renal = test system: ACHN renal
IGROV1 ovarian = test system: IGROV1 ovarian
LOX IMVI melanoma = test system: LOX IMVI melanoma

Row | SMILES | TGI (786-0 renal) | TGI (NCI-H23 lung) | TGI (SW-620 colon) | TGI (A498 renal) [µM] | TGI (HL-60(TB) leukemia) | TGI (SK-MEL-28 melanoma) | TGI (HCT-15 colon) | TGI (ACHN renal) | TGI (IGROV1 ovarian) | TGI (LOX IMVI melanoma) | GI50 (786-0 renal) [µM] | GI50 (NCI-H23 lung) [µM] | GI50 (SW-620 colon) [µM] | GI50 (A498 renal) [µM] | GI50 (HL-60(TB) leukemia) | GI50 (SK-MEL-28 melanoma) [µM] | GI50 (HCT-15 colon) [µM] | GI50 (ACHN renal) [µM] | GI50 (IGROV1 ovarian) [µM] | GI50 (LOX IMVI melanoma) [µM]
1 | Cc1ccc(S(=O)(=O)NCc2cccc([N+](=O)[O-])c2)cc1 | > 100 µM | > 100 µM | > 100 µM | > 100 | 90.3 µM | > 100 µM | > 100 µM | > 100 µM | > 100 µM | > 100 µM |  |  |  |  |  |  |  |  |  | 
2 | CC1=C2[C@@H](c3ccccc3)C3C=CC2(C=C3C(F)(F)F)N(C(=O)NC2CCCCC2)C1=O (stereo not given in full) | > 100 µM | > 100 µM | > 100 µM | > 100 | 39.2 µM | > 100 µM | > 100 µM | > 100 µM | > 100 µM | > 100 µM |  |  |  |  |  |  |  |  |  | 
3 | O=C(NCc1cccnc1)c1ccc([N+](=O)[O-])o1 | 16.6 µM | 6.85 µM | 5.58 µM | 9.02 | 25 µM | 7.58 µM | 1.76 µM | > 15.5 µM | > 24.5 µM | 6.58 µM | 2.9 | 2.26 | 1.47 | 3.25 | 8.44 µM | 2.83 | 0.647 | 3.56 | 4.52 | 1.2
4 | c1csc(-c2[nH]nc3c2CCc2ccccc2-3)c1 | 51 µM | 42.9 µM | 46.1 µM | 32.4 | 47.3 µM | 39.7 µM | 18.6 µM | 85 µM | 73 µM | 29.4 µM | 21.3 | 16.1 | 20.3 | 14.3 | 20.5 µM | 19.2 | 0.289 | 18.1 | 19.4 | 15.7
5 | O=C(COC(=O)[C@H](C[Se][Se]C[C@H](NC(=O)c1ccc(Br)cc1F)C(=O)OCC(=O)c1ccc(F)cc1)NC(=O)c1ccc(Br)cc1F)c1ccc(F)cc1 | 2.23 µM | 2.7 µM | 2.43 µM | 1.04 | > 100 µM | 1.63 µM | 4.03 µM | 4.18 µM | 3 µM | 3.67 µM | 0.9 | 0.692 | 0.878 | 0.306 | 0.425 µM | 0.631 | 1.34 | 1.65 | 1.35 | 1.48
6 | Cc1cc2c(SCc3ccccc3Cl)nc(N)nc2nc1C | > 100 µM | > 100 µM | > 100 µM | > 100 | > 100 µM | > 100 µM | > 100 µM | > 100 µM | > 100 µM | > 100 µM |  |  |  |  |  |  |  |  |  | 
7 | O=C(Nc1cccc(C(F)(F)F)c1)Nc1ccc(OCc2nnc(-c3ccccc3)o2)c(F)c1 | 22.4 µM | 24.5 µM | > 100 µM | 25.8 | 6.4 µM | 66.5 µM | 54.3 µM | 12.3 µM | 26.6 µM | 25.6 µM | 6.18 | 4.49 | 4.08 | 3.38 | 2.58 µM | 10.3 | 2.92 | 2.92 | 5.5 | 4.58
8 | O=C1OC(c2ccccc2)=N/C1=C\c1ccc(N(CCCl)CCCl)cc1 | > 100 µM | > 100 µM | > 100 µM | > 100 | > 100 µM | > 100 µM | > 100 µM | > 100 µM | > 100 µM | > 100 µM |  |  |  |  |  |  |  |  |  | 
9 | O=C1NC2(CCCCC2)C2=C1CCCCC2 | > 100 µM | > 100 µM | > 100 µM | > 100 | > 100 µM | > 100 µM | > 100 µM | > 100 µM | > 100 µM | > 100 µM |  |  |  |  |  |  |  |  |  | 
10 | O=C(O)C12C3C4C1C1C2C3C41I (stereo not given) | > 100 µM | > 100 µM | > 100 µM | > 100 | > 100 µM | > 100 µM | > 100 µM | > 100 µM | > 100 µM | > 100 µM |  |  |  |  |  |  |  |  |  | 
11 | CC1CC2C(=O)N(c3ccccc3)C(=O)C2c2[nH]c3ccccc3c21 (stereo not given) | > 100 µM | > 100 µM | > 100 µM | > 100 | > 100 µM | > 100 µM | > 100 µM | > 100 µM | > 100 µM | > 100 µM |  |  |  |  |  |  |  |  |  | 
12 | Cc1c(-c2ccc(N3CCc4cccc(C(=O)Nc5nc6ccccc6s5)c4C3)nc2C(=O)O)cnn1CC12CC3CC(CC(C3)C1)C2 | 12.4 µM | 35.4 µM | 37.1 µM | < 0.0127 | 18.7 µM | 19.3 µM | 19.9 µM | 18.5 µM | 31.5 µM | 23.4 µM | 3.65 | 13.4 | 8.54 | < 0.01 | 3.43 µM | 6.27 | 6.08 | 4.83 | 12.6 | 5.92
13 | Cn1c(=O)c(Oc2ccc(F)cc2F)cc2cnc(NC3CCC(O)CC3)nc21 (stereo not given) | > 25 µM | > 25 µM | > 25 µM | > 25 | > 25 µM | > 25 µM | > 25 µM | > 25 µM | > 25 µM | > 25 µM | > 25 | > 25 | > 25 | 5.89 | > 25 µM | > 25 | > 25 | > 25 | > 25 | > 25
14 | Cc1c2cc[n+](C)cc2c(C)c2c1[nH]c1ccc(Oc3ccccc3)cc12 | > 64.3 µM |  | > 37.9 µM and 40.6 µM | > 100 |  | > 27.3 µM and 21.3 µM | > 100 µM | > 38.4 µM and 19 µM | 33.5 µM and 24.5 µM | 11.3 µM and 50.1 µM |  | 1.73 |  |  | 2.18 µM and 4.06 µM |  |  |  |  | 2.96
15 | Cc1c(N)nc(C2CC(=O)N2CC(N)C(N)=O)nc1C(=O)NC(C(=O)NC(C)C(O)C(C)C(=O)NC(C(=O)NCCc1nc(-c2nc(C(=O)NCCNCC(C)O)cs2)cs1)C(C)O)C(OC1OC(CO)C(O)C(O)C1OC1OC(CO)C(O)C(OC(N)=O)C1O)c1cnc[nH]1 (stereo not given) | 50 µM and 36.8 µM | 16.3 µM and 8.81 µM | > 50 µM | > 46.6 | 50 µM and > 37.4 µM | > 100 µM | 50 µM and > 75.9 µM | 3.85 µM and 1.2 µM | 50 µM and > 100 µM | 9.28 µM and 8.16 µM | 2.3 | 1.06 | > 50 |  | 24.4 µM | > 50 | 42.7 | 0.135 | 13.4 | 0.712
16 | CCC(=C(c1ccc(OCCN(CC)CC)cc1)c1ccc(OCCN(CC)CC)cc1)c1ccc(Cl)cc1 | 1.08 µM | 1.41 µM | 1.12 µM | 1.66 | 1.32 µM | 1.09 µM | 1.08 µM | 1.08 µM | 1.15 µM | 1.03 µM | 0.565 | 0.652 | 0.572 | 0.591 | 0.626 µM | 0.592 | 0.541 | 0.596 | 0.618 | 0.55
17 | CN1C/C(=C\c2ccco2)c2nc(N)nc(-c3ccco3)c2C1 | > 100 µM | > 100 µM | > 100 µM | > 100 | > 100 µM | > 100 µM | > 100 µM | > 100 µM | > 100 µM | > 100 µM |  |  |  |  |  |  |  |  |  | 
18 | Cc1c(C(=O)C/C(=N/NC(=O)CC#N)C(N)=O)[n+](=O)c2ccccc2n1[O-] | > 100 µM | > 100 µM | 34.5 µM | > 100 | 69.4 µM | > 100 µM | > 100 µM | > 100 µM | 87.5 µM | > 100 µM |  |  |  |  |  |  |  |  |  | 
